# Molecular target: T1, human PAD4 (Homo sapiens, UniProt Q9UM07)
# T1 construct: human PAD4 (NM_012387), A2-P663, was PCR amplified; His-SUMO (N, cleaved yes); made in house; host or cells: E. coli BL21(DE3)
# Assay: In vitro PAD4 BAEE biochemical assay
# Settings: BAEE substrate 3 mM, 5 nM PAD4, 2 mM calcium chloride; geometric mean of multiple experiments
# Summary of the method: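 PAD4 5 nM, CaCl2 2 mM, BAEE 3 mM final; 50 mM MOPS pH 7.6, 50 mM NaCl, 0.05% Tween-20, 2 mM DTT. Cpd + enzyme 30 min 25 °C; substrate 2 h 25 °C; EDTA stop; OPA detection 1 h. IC50 4-parameter fit.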
# T1 sequence (Q9UM07 2-663): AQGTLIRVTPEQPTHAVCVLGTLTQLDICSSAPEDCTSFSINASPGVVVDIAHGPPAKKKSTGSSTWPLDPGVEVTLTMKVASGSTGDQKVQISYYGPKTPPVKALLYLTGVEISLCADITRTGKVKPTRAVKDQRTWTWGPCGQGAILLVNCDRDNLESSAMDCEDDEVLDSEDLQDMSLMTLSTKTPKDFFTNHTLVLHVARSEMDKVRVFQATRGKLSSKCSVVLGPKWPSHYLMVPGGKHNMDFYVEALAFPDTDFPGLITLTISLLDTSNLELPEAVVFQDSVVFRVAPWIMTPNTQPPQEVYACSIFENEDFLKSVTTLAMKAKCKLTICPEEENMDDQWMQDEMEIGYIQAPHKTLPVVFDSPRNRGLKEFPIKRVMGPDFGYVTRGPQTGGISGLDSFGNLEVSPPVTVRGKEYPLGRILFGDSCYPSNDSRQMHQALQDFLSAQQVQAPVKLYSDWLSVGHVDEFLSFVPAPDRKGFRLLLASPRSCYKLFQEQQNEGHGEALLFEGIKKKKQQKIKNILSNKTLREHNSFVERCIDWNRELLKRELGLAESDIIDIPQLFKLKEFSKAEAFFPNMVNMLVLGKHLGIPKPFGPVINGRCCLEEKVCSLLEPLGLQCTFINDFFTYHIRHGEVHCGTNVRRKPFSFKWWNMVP
row,Structure (SMILES),IC50
1,"COc1cc(C(=O)N2C[C@H](N)[C@@H]3CC[C@H]2[C@H]3F)cc2nc(-c3cc4ccc5nc4n3CC(F)(F)CCC[C@@H]3C[C@H]3C(=O)N[C@@H]5C)n(C)c12 [Example 668, (2~{R},5~{R},7~{R})-14-[5-[(1~{S},4~{R},5~ {S},8~{S})-4-amino-8-fluoro-2-azabicyclo [3.2.1]octane-2-carbonyl]-7-methoxy-1-methyl-benzimidazol-2-yl]-11,11-difluoro-2-methyl-3,13,19-triazatetracyclo [11.5.2.0^{5,7}.0^{16,20}] icosa-1(19),14,16(20), 17-tetraen-4-one]",0.022 µM
2,"CO[C@@H]1CCN(C(=O)c2cc(F)c3c(c2)nc(-c2cc4ccc5nc4n2CCCCCc2nc4ccsc4cc2C(=O)N[C@@H]5C)n3C2CC2)C[C@@H]1N [Example 797, (2~{R})-20-[5-[(3~{S},4~{R})-3-amino-4-methoxy-piperidine-1-carbonyl]-1-cyclopropyl-7-fluoro-benzimidazol-2-yl]-2-methyl-8-thia-3,12,19,25-tetrazapentacyclo[17.5.2.0^ {5,13}.0^{7,11}.0^{22,26}] hexacosa-1(24),5(13), 6,9,11,20,22,25-octaen-4-one]",0.016 µM
3,"COc1cc(C(=O)N2C[C@H](N)[C@@H]3CC[C@H]2C3)cc2nc(-c3cc4ccc5nc4n3CCCCCC[C@](F)(c3ccccn3)C(=O)N[C@@H]5C)n(C3CC3)c12 (single isomer, unassigned) [Example 945, (8˜{S},11˜{R})-17-[5-[(1˜{S},4˜{R},5˜{R})-4-amino-2-azabicyclo[3.2.1]octane-2-carbonyl]-1-cyclopropyl-7-methoxy-benzimidazol-2-yl]-8-fluoro-11-methyl-8-(2-pyridyl)-1,10,19-triazatricyclo[10.5.2.0^{15,18}]nonadeca-12(19),13,15(18),16-tetraen-9-one]",0.034 µM
4,"COc1cc(C(=O)N2CC[C@@H](OC)[C@@H](N)C2)cc2nc(-c3cc4ccc5nc4n3CCCCCc3ccnc(Cl)c3C(=O)N[C@@H]5C)n(C)c12 [Example 655, (2~{R})-17-[5-[(3~{S},4~{R})-3-amino-4-methoxy-piperidine-1-carbonyl]-7-methoxy-1-methyl-benzimidazol-2-yl]-6-chloro-2-methyl-3,7,16,22-tetrazatetracyclo[14.5.2.0^ {5,10}.0^{19,23}] tricosa-1(22),5,7,9,17,19(23), 20-heptaen-4-one]",0.06 µM
5,"COc1cc(C(=O)N2CC[C@@H](OC)[C@@H](N)C2)cc2nc(-c3cc4ccc5nc4n3CC(F)(F)CCC[C@@H]3C[C@H]3C(=O)N(C)[C@@H]5C)n(C)c12 [Example 692, (2~{R},5~{R},7~{R})-14-[5-[(3~{S},4~{R})-3-amino-4-methoxy-piperidine-1-carbonyl]-7-methoxy-1-methyl-benzimidazol-2-yl]-11,11-difluoro-2,3-dimethyl-3,13,19-triazatetracyclo[11.5.2.0^ {5,7}.0^{16,20}]icosa-1(19),14,16(20),17-tetraen-4-one]",0.027 µM
6,"COc1cc(C(=O)N[C@@H]2CNC[C@@H]3C[C@@H]32)cc2nc(-c3cc4ccc5nc4n3CCCCCCC(C)(C)C(=O)N[C@@H]5C)n(C)c12 [Example 202, ~{N}-[(1~{R},5~{S},6~{S})-3-azabicyclo[4.1.0]heptan-5-yl]-7-methoxy-1-methyl-2-[(11~{R})-8,8,11-trimethyl-9-oxo-1,10,19-triazatricyclo[10.5.2.0^{15,18}]nonadeca-12(19),13,15(18),16-tetraen-17-yl]benzimidazole-5-carboxamide]",5.13 µM
7,"COc1cc(C(=O)N2CCC[C@@H](N)C2)cc2nc(-c3cc4ccc5nc4n3CCCCCCCCOC5C)n(C)c12 (stereo partly drawn) [Example 291, [(3˜{R})-3-amino-1-piperidyl]-[7-methoxy-1-methyl-2-(11-methyl-10-oxa-1,19-diazatricyclo[10.5.2.0^{15,18}]nonadeca-12(19),13,15(18),16-tetraen-17-yl)benzimidazol-5-yl]methanone]",0.335 µM
8,"COc1cc(C(=O)N2CC[C@@H](OC)[C@@H](N)C2)cc2nc(-c3cc4ccc5nc4n3CC(F)(F)CCCOC(C)(C)C(=O)N[C@@H]5C)n(C)c12 [Example 588, (11~{R})-17-[5-[(3~{S},4~ {R})-3-amino-4-methoxy-piperidine-1-carbonyl]-7-methoxy-1-methyl-benzimidazol-2-yl]-3,3-difluoro-8,8,11-trimethyl-7-oxa-1,10,19-triazatricyclo[10.5.2.0^ {15,18}]nonadeca-12(19),13,15(18), 16-tetraen-9-one]",0.193 µM
9,"C[C@H]1NC(=O)c2ccc(Cl)nc2CCCCCn2c(-c3nc4cc(C(=O)N5C[C@H](N)[C@@H]6CC[C@H]5C6)cc(F)c4n3CC3CC3)cc3ccc1nc32 [Example 921, (2~{R})-17-[5-[(1~{S},4~{R},5~ {R})-4-amino-2-azabicyclo [3.2.1]octane-2-carbonyl]-1-(cyclopropylmethyl)-7-fluoro-benzimidazol-2-yl]-8-chloro-2-methyl-3,9,16,22-tetrazatetracyclo[14.5.2.0^ {5,10}.0^{19,23}]tricosa-1(22),5(10),6,8,17,19(23),20-heptaen-4-one]",0.03 µM
10,"C[C@H]1NC(=O)[C@@H]2C[C@H]2CCCC(F)(F)Cn2c(-c3nc4cc(C(=O)N5C[C@H](N)[C@@H]6CC[C@H]5C6)cc(F)c4n3C3CC3)cc3cc(F)c1cc32 [Example 464, (2~{R},5~{R},7~{R})-14-[5-[(1~{S},4~{R},5~{R})-4-amino-2-azabicyclo[3.2.1]octane-2-carbonyl]-1-cyclopropyl-7-fluoro-benzimidazol-2-yl]-11,11,18-trifluoro-2-methyl-3,13-diazatetracyclo[11.5.2.0^{5,7}.0^{16,20}] icosa-1(19),14,16(20),17-tetraen-4-one]",0.028 µM

# The next lines start with the values.
row,IC50,Structure (SMILES)
1,0.107 µM,"COc1cc(C(=O)N2CCC[C@@H](N)C2)cc2nc(-c3cc4ccc5nc4n3C[C@@H]3C[C@H]3COCCC(=O)N[C@@H]5C)n(C)c12 [Example 150, (3~{R},5~{R},12~{R})-18-[5-[(3~{R})-3-aminopiperidine-1-carbonyl]-7-methoxy-1-methyl-benzimidazol-2-yl]-12-methyl-7-oxa-1,11,20-triazatetracyclo[11.5.2.0^{3,5}.0^{16,19}] icosa-13(20),14,16(19),17-tetraen-10-one]"
2,0.161 µM,"COc1cc(C(=O)N2[C@H]3CC[C@@H]2[C@H](N)C3)cc2nc(-c3cc4ccc5nc4n3CCCCCCCC(=O)Nc3ccccc3-5)n(C)c12 [Example 93, 18-[5-[(1~{R},2~{R},4~{S})-2-amino-7-azabicyclo[2.2.1]heptane-7-carbonyl]-7-methoxy-1-methyl-benzimidazol-2-yl]-8,17,23-triazatetracyclo[15.5.2.0^{2,7).0^{20,24}] tetracosa-1(23),2,4,6,18,20(24),21-heptaen-9-one]"
3,0.07 µM,"COc1cc(C(=O)N2CCC[C@@H](N)C2)cc2nc(-c3cc4ccc5nc4n3CCCCCC[C@@H](C)C(=O)N[C@@H]5C)n(C)c12 [Example 110, (8~{R},11~{R})-17-[5-[(3~{R})-3-aminopiperidine-1-carbonyl]-7-methoxy-1-methyl-benzimidazol-2-yl]-8,11-dimethyl-1,10,19-triazatricyclo[10.5.2.0^{15,18}]nonadeca-12(19),13,15(18),16-tetraen-9-one]"
4,0.111 µM,"COc1cc(C(=O)N2[C@H]3CC[C@@H]2[C@H](N)C3)cc2nc(-c3cc4ccc5cc4n3CCCCCCC(C)(C)C(=O)Nc3ncccc3-5)n(C)c12 [Example 99, 18-[5-[(1~{R},2~{R},4~{S})-2-amino-7-azabicyclo[2.2.1]heptane-7-carbonyl]-7-methoxy-1-methyl-benzimidazol-2-yl]-10,10-dimethyl-6,8,17-triazatetracyclo[15.5.2.0^{2,7}.0^{20,24}] tetracosa-1(23),2(7),3,5,18,20(24),21-heptaen-9-one]"
5,0.07 µM,"COc1cc(C(=O)N2CCC[C@@H](N)C2)cc2nc(-c3cc4ccc5nc4n3C[C@H]3C[C@H]3COCCC(=O)N[C@@H]5C)n(C)c12 [Example 304, (3~{S),5~{R},12~{R})-18-[5-[(3~{R})-3-aminopiperidine-1-carbonyl]-7-methoxy-1-methyl-benzimidazol-2-yl]-12-methyl-7-oxa-1,11,20-triazatetracyclo[11.5.2.0^{3,5}.0^{16,19}] icosa-13(20),14,16(19),17-tetraen-10-one]"
6,0.018 µM,"COc1cc(C(=O)N2[C@H]3CC[C@@H]2[C@H](N)C3)cc2nc(-c3cc4ccc5nc4n3CCCCCOCC(=O)N[C@@H]5C)c(C)n12 [Example 247, (11~{R})-17-[7-[(1~{R},2~{R},4~{S})-2-amino-7-azabicyclo[2.2.1]heptane-7-carbonyl]-5-methoxy-3-methyl-imidazo[1,2-a]pyridin-2-yl]-11-methyl-7-oxa-1,10,19-triazatricyclo[10.5.2.0^{15,18}]nonadeca-12(19),13,15(18),16-tetraen-9-one]"
7,0.643 µM,"COc1cc(C(=O)N2[C@H]3CC[C@@H]2[C@H](N)C3)cc2nc(-c3cc4ccc5nc4n3CCCCCCCCOc3ncccc3-5)n(C)c12 [Example 86, [(1~{R},2~{R},4~{S})-2-amino-7-azabicyclo[2.2.1]heptan-7-yl]-[7-methoxy-1-methyl-2-(8-oxa-6,17,23-triazatetracyclo[15.5.2.0^{2,7}.0^{20,24}]tetracosa-1(23),2,4,6,18,20(24),21-heptaen-18-yl)benzimidazol-5-yl]methanone]"
8,0.045 µM,"COc1cc(C(=O)N2[C@H]3CC[C@@H]2[C@H](N)C3)cc2nc(-c3cc4ccc5nc4n3CCCCCC(C)(C)C(=O)N[C@@H]5C)n(C)c12 [Example 102, (10~{R})-16-[5-[(1~{R},2~{R},4~{S})-2-amino-7-azabicyclo[2.2.1]heptane-7-carbonyl]-7-methoxy-1-methyl-benzimidazol-2-yl]-7,7,10-trimethyl-1,9,18-triazatricyclo[9.5.2.0^{14,17}]octadeca-11(18),12,14(17),15-tetraen-8-one]"
